Patent US6803366B2, “Agent for improving learning or memory” (Toray Industries, Inc., priority 1999, dated 2004)
“Also recorded” adds a separate entry of the source.

How the values were obtained:
[1] = system: patients suffering from dementia; conditions: cited from earlier work
ICR male mice [2] = test: Test of learning of Step-Down type passive avoidance (MK-801-induced learning disability and memory disorder); type: in vivo; conditions: test 24 hours after training, FIG. 2
Protocol: In experiments, ICR male mice of 6 weeks old were used. The experiment apparatus comprised a plastic box sizing 25×25×30 cm (width×depth×height), a stainless steel grid for giving electrical shock, which was laid on the floor of the box, and a wooden platform sizing 4.5×4.5×3.0 cm (width×depth×height) placed on a corner on the floor grid.
Sixty minutes before the training trial, 100 or 300 μg/kg of Compound 1, or its solvent, saline, was subcutaneously administered. Thirty minutes later, 0.1 mg/kg of MK-801 which is a non-competitive antagonist of NMDA receptor, which is a compound that causes learning disability and/or memory disorder was intraperitoneally administered. Training trial was carried out by placing a mouse on the platform, and the time period until the mouse stepped down to the floor grid, that is, the Step-Down latency, was measured. Simultaneously with the attaching all of the feet of the mouse to the floor, an electrical shock of 0.6 mA was given for 2 seconds, thereby making the mouse to learn that an electrical shock would be given if the mouse would stepped down to the floor.
Test trials were carried out 24 hours after the training trials. Each mouse was again placed on the platform, and the Step-Down latency was measured for maximally 300 seconds.

ICR male mice [3] = test: Evaluation of activity to improve learning and/or memory using Morris water maze; type: in vivo
Protocol: Evaluation of Activity to Improve Learning and/or Memory Using Morris Water Maze
In experiments, ICR male mice of 6 weeks old were used. Using Morris water maze as an experiment apparatus, ability of learning and memory of space was evaluated based on the latency until a mouse escapes to a platform arranged in a pool as an index. One trial was maximally 120 seconds, and 1 session was composed of three trials in which each mouse was made to swim in the pool from three different positions. Average time needed for the escape was calculated and evaluation was made based thereon. On the first day (the first session), no drug and nothing were administered. From the second session (Day 2), Compound 1, Compound 8 or a solvent was administered. Trial was repeated for 5 days (5 sessions).
The dose of Compound 1 was 10, 30 or 100 μg/kg, and the dose of Compound 8 was 100 μg/kg. Compound 1, Compound 8 or saline which was the solvent was subcutaneously administered 30 minutes before the first trial of each session. The data was subjected to analysis of variance and significance was evaluated according to Fisher's PLSD test. The cases where P<0.05 was evaluated as significant.

COc1cc2c(cc1OC)C(=O)C(CC1CCN(Cc3ccccc3)CC1)C2 (stereo not shown) [Aricept]
improvement in patients suffering from dementia ([1]; dementia in light to medium degree): improvement is observed in about half cases

CN1CC[C@@]2(c3cccc(O)c3)Cc3nc4ccccc4cc3C[C@H]2C1 [Compound 1, (4aR, 12aR)-2-methyl-4a-(3-hydroxyphenyl)-1,2,3,4,4a,5,12,12a-octahydro-quinoline[2,3-g]isoquinoline]
Step-Down latency in test trials: reversal of the shortening by MK-801 (ICR male mice [2]; Compound 1 100 or 300 μg/kg s.c. 60 min before training, MK-801 0.1 mg/kg i.p. 30 min later, vs MK-801 alone): significantly reduced; also recorded: recovered
time period (latency) required for escaping to the platform; ability of learning and memory of space (ICR male mice [3]; Compound 1 10, 30 or 100 μg/kg subcutaneously 30 minutes before first trial of each session, sessions 2-5, vs saline, FIG. 1): shortened dose-dependently from the second session; also recorded: ability of learning and memory of space was improved

CN1CC[C@@]2(c3cccc(O)c3)Cc3nc4c(Br)cc(Br)cc4cc3C[C@@H]2C1 [Compound 8, (+)-7,9-dibromo-4a-(3-hydroxyphenyl)-2-methyl-1,2,3,4,4a,5,12,12a-octahydro-quinoline[2,3 g]isoquinoline]
latency required for escaping to the platform; ability of learning and memory of space (ICR male mice [3]; Compound 8 100 μg/kg subcutaneously 30 minutes before first trial of each session, vs saline, FIG. 3): shortened

C[C@]12N[C@H](Cc3ccccc31)c1ccccc12 [MK-801]
Step-Down latency in test trials (passive avoidance reaction) (ICR male mice [2]; MK-801 alone 0.1 mg/kg i.p., vs control group (solvent alone)): significantly shorter than that of the control group; also recorded: significantly suppressed

Nc1c2c(nc3ccccc13)CCCC2 [tacrine]
side effects ([1]; clinical use): hepatic toxicity and choline-related side effects
improvement of intellectual function in cases in which the drug is administered ([1]; dementia patients): improvement of intellectual function to a certain degree is observed in about half of the cases
